“Also recorded” adds a separate entry of the source. Like-named read-outs stand apart in the source and are kept apart here.
Legend:
[1] = target: T1, pFGFR4 in MDA-MB-453 cells (Homo sapiens (Human), UniProt P22455, Y367C); test: Washout experiment (duration of pFGFR4 inhibition); format: cell-based; conditions: 1000-2000 nM for 1 hr, washed, up to 24 hr
Description: The cells were allowed to settle down for 4 hrs and were then maintained in low-serum (0.1% FBS) media overnight.
The following morning, the media was removed and the cells were treated with 1000-2000 nM of test compound in low-serum media for 1 hr. The cells were washed free of test compound (3×) with PBS (Invitrogen). One set of cells was immediately lysed as indicated above as the 0 hr time point. The remaining cells were incubated with the appropriate complete growth media (10-20% FBS) for 1, 2, 4, 8, 16 (in certain circumstances) and 24 hr. DMSO (0.5%) controls were collected at all time points.

Huh7 cells = test: Cell proliferation, Huh7 (CellTiter Glo); format: cell-based; conditions: Homo sapiens, Huh-7; Huh7; 120 hr; read-out: Cell Proliferation GI50 (nM) HUH
Description: The growth inhibition (GI50) values were determined by Graph Pad Prism.

FGFR4-WT = FGFR4-WT (Homo sapiens (Human), UniProt P22455); test: Omnia assay for potency assessment against FGFR4 enzyme; format: biochemical; conditions: read-out: FGFR4 IC50
FGFR4-WT, sequence (P22455 22-802): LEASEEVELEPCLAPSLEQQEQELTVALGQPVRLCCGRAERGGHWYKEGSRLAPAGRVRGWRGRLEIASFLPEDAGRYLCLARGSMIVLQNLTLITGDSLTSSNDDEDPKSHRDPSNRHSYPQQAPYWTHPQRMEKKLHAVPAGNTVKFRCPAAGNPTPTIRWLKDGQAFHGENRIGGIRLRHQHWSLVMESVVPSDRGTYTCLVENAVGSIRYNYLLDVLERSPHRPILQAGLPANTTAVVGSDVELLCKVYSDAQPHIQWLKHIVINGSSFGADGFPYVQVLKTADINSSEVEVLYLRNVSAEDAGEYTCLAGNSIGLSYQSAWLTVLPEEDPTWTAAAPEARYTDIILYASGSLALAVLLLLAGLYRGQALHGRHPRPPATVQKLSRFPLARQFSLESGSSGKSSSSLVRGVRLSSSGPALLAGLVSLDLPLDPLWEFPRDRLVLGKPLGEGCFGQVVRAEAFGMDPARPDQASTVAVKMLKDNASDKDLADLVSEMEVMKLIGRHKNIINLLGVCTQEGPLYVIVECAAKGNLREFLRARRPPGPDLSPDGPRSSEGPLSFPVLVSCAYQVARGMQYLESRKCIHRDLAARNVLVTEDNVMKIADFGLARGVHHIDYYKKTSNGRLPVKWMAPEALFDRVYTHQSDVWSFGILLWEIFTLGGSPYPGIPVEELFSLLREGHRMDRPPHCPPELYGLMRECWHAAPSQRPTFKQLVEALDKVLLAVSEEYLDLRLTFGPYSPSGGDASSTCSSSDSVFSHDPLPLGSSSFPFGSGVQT
Description: A 10× stock solution of FGFR4-WT (PR4380C), (from Invitrogen, Carlsbad, Calif.) corresponding to method a in Table 7, was prepared as described below. Alternatively, a 10× stock solution of FGFR4-WT (F01-11G), (SignalChem, Richmond, BC) corresponding to method b in Table 7, was prepared as described below. A solution of 1.4×ATP (AS001A) and 5×Tyr-Sox conjugated peptide substrate (KNZ3101) were prepared in IX kinase reaction buffer consisting of 20 mM Tris, pH 7.5, 5 mM MgCl2, 1 mM EGTA, 5 mM β-glycerophosphate, 5% glycerol (10× stock, KB002A) and 0.2 mM DTT (DS001A). […] The serially diluted compounds were prepared on a Tecan EVO100. A second addition of 10 μl of Tyr-Sox FGFR4 substrate was added to each well and the kinase reactions were started with the addition of 35 μL of 1.4×ATP. The reactions were monitored every 71 seconds for 240 minutes at λex360/λem485 in a Synergy plate reader from BioTek (Winooski, Vt.).

MDA-MB-453 cells = test: Cell proliferation, MDA-MB-453 (CellTiter Glo); format: cell-based; conditions: Homo sapiens; MDA-MB-453; 96 hr; read-out: Cell Proliferation GI50 (nM) MDA
[2] = target: FGFR4 in MDA-MB-453 cells (Homo sapiens (Human), UniProt P22455, Y367C); test: Target occupancy assay with biotinylated covalent probe I-127; format: cell-based; conditions: MDA-MB-453 lysate; 2 μM biotinylated probe I-127
FGFR4 in MDA-MB-453 cells, sequence (P22455 22-802 Y367C): as the sequence (P22455 22-802) above, with Y346C counted along it
Description: In order to assess free FGFR4 protein a biotinylated covalent probe was utilized. […] The reaction was incubated for 2 hr at room temperature. The samples and probe mixture were transferred to a FGFR4-coated MSD plate for 2 hr at room temperature. MSD signals were obtained with an anti-streptavidin Sulfo-tag (Meso Scale) antibody for 1 hr at room temperature.
If a compound completely (100%) covalently modies FGFR4 no free FGFR4 should be available for covalent modification by the biotinylated probe and subsequent binding to streptavidin and detection.

pFGFR4 in Huh7 cells = pFGFR4 in Huh7 cells (Homo sapiens (Human), UniProt P22455); test: FGFR4 signaling (phospho-FGFR4) in Huh7 cells, MSD; format: cell-based; conditions: Meso Scale assay (MSD), 1 hr treatment, read-out: Signaling EC50 (nM) pFGFR4 (Huh)
pFGFR4 in Huh7 cells, sequence (P22455 22-802): as the sequence (P22455 22-802) above

[3] = target: T1, pFGFR4 in MDA-MB-453 cells; test: FGFR4 signaling (phospho-FGFR4) in MDA-MB-453 cells; format: cell-based; conditions: 1 hr treatment
Description: Huh7 cells were grown in DMEM (Invitrogen, Carlsbad, Calif.) supplemented with 10% FBS (Invitrogen) and 1% Penicillin-Streptomycin (P/S, Lonza, Walkersville, Md.).
For the MSD and ELISA assays, total FGFR4 antibodies were obtained from R&D Systems (Minneapolis, Minn.) and used at 1:500. For the immunoblotting (Western blotting) assay, total FGFR4 antibody was obtained from Santa Cruz (Santa Cruz, Calif.) and used at 1:1000. Phospho-FGFR antibodies were obtained from Cell Signaling (Danvers, Mass.) or R&D Systems and used at 1:1000. The phopho-FGFR antibody from Cell Signaling was used for immunoblotting, whereas the phopho-FGFR antibody from R&D was used for MSD and ELISA assays. Secondary antibodies were used at 1:10,000. The goat anti-mouse IgG IRDye 800CW antibody was obtained from LiCor Biosciences (Lincoln, Nebr.) and the goat anti-rabbit IgG Alexa Fluor 680 was obtained from Invitrogen. The anti-rabbit Sulfo-tag and anti-streptavidin Sulfo-tag antibodies was obtained from Meso Scale Discovery (Gaithersburg, Md.), and were used at 1:1000 and 1:5000, respectively.
For MDA-MB-453 cells signaling, cells were grown in 96-well poly-D-lysine plates (BD Bioscience, San Jose, Calif.) to 90% confluence, and were then incubated in low-serum (0.1% FBS) media for 16-18 hr. […] After treatment, the cells were washed with cold PBS (Invitrogen) and were immediately lysed by freeze/thawing 3× in 32 μL of cold Cell Extraction Buffer (Invitrogen) which was supplemented with Complete Protease inhibitors (Roche, Indianapolis, Ind.) and PhosphoSTOP (Roche) phosphatase inhibitors.
Phospho-protein signals were quantitated using Odyssey Infrared Imaging (Li-Cor Biosciences).
To assess phospho-FGFR signaling, the blots were probed with anti-Phospho-FGFR (Y653/Y654) and total anti-FGFR antibodies. The phospho-FGFR signal was normalized to total FGFR expression for each sample. […] The normalized data was fitted using a sigmoidal curve analysis program (Graph Pad Prism version 5) with variable Hill slope to determine the EC50 values.
After treatment, the cells were washed with cold PBS (Invitrogen), and were immediately lysed by freeze/thawing 3× in 32 μL of cold Cell Extraction Buffer (Invitrogen), which was supplemented with Complete Protease inhibitors (Roche) and PhosphoSTOP (Roche) phosphatase inhibitors.
MSD plates (Meso Scale Discovery) were coated with total FGFR-4 antibodies overnight at 4° C. A lysate (25 μL) was added to the MSD plate overnight at 4° C. The MSD signals were obtained by incubating with a phospho-FGFR antibody (R&D Systems) and an anti-rabbit sulfo-tag antibody (Meso Scale), for 2 hr at room temperature. […] The data was fitted using a sigmoidal curve analysis program (Graph Pad Prism version 5) with variable Hill slope to determine the EC50 values.
MDA-MB-453 cells were grown in 96-well poly-D-lysine plates (BD Bioscience, San Jose, Calif.) to 90% confluence. The cells were then incubated in low-serum (0.1% FBS) media for 16-18 hr. […] After treatment, the MDA-MB-453 cells were washed with cold PBS (Invitrogen) and were immediately lysed by freeze/thawing 3× in 32 μL of cold Cell Extraction Buffer (Invitrogen), which was supplemented with Complete Protease inhibitors (Roche) and PhosphoSTOP (Roche) phosphatase inhibitors.
Nunc-immuno plates (96-well; Sigma, St. Louis, Mo.) were coated with total FGFR-4 antibodies overnight at 4° C. A lysate (25 μL) was added to the plate for 2 hr at room temperature. A phospho-FGFR detection antibody (100 μL) was added per well for 2 hr at room temperature, followed by a goat anti-rabbit HRP antibody (100 μL) for 45 min. […] The data was fitted using a sigmoidal curve analysis program (Graph Pad Prism version 5) with variable Hill slope to determine the EC50 values.

[4] = method a: Invitrogen FGFR4-WT 10 nM, ATP 300 uM, Y10-Sox 10 uM
[5] = Method A immunoblotting (Western blotting)

T1 sequence (P22455 22-802 Y367C): as the sequence (P22455 22-802) above, with Y346C counted along it

| Compound | duration of action against pFGFR4 signalling after washout [1] | GI50 (Huh7 cells) [nM] | IC50 (FGFR4-WT; [4]) [nM] | GI50 (MDA-MB-453 cells) [nM] | EC50 [2] [nM] | EC50 (pFGFR4 in Huh7 cells) [nM] | EC50 ([3]; Method C ELISA) [nM] | IC50 (FGFR4-WT) [nM] | EC50 [3, 5] [nM] | IC50 (FGFR4-WT; method b: SignalChem FGFR4-WT 2.5 nM, ATP 250 uM, Y10-Sox 10 uM) [nM] |
| --- | --- | --- | --- | --- | --- | --- | --- | --- | --- | --- |
| C=CC(=O)NC1CCCCC1Nc1ncc2c(n1)N(Cc1cscn1)C(=O)N(c1c(Cl)c(OC)cc(OC)c1Cl)C2 (racemic) [I-69] | prolonged inhibition of autophosphorylation of FGFR4; also recorded: prolonged duration of action | 501 to 999 | < 100 | 101 to 500 |  |  |  |  |  |  |
| C=CC(=O)Nc1ccccc1Nc1ncc2c(n1)N(Cc1cccc(NC(=O)CC)c1)C(=O)N(c1c(Cl)c(OC)cc(OC)c1Cl)C2 [I-1] | prolonged duration of action; also recorded: has PDA | 101 to 500 | < 100 | < 100 | < 100 | < 100 |  |  |  |  |
| C=CC(=O)Nc1ccccc1Nc1ncc2c(n1)N(Cc1ccccc1)C(=O)N(c1c(Cl)c(OC)cc(OC)c1Cl)C2 [I-3] |  | < 100 |  | < 100 | < 100 |  | < 100 |  |  |  |
| C=CC(=O)Nc1cccc(Nc2ncc3c(n2)N(Cc2cccc(NC(=O)CC)c2)C(=O)N(c2c(Cl)c(OC)cc(OC)c2Cl)C3)c1 [I-232] |  |  |  |  |  |  |  | < 100 | < 100 |  |
| C=CC(=O)Nc1ccc(Nc2ncc3c(n2)N(Cc2cccc(NC(=O)CC)c2)C(=O)N(c2c(Cl)c(OC)cc(OC)c2Cl)C3)cc1 [I-233] |  |  |  |  |  |  |  |  | < 100 | < 100 |
| CCC(=O)Nc1cccc(CN2C(=O)N(c3c(Cl)c(OC)cc(OC)c3Cl)Cc3cnc(Nc4ccccc4NC(=O)CC)nc32)c1 [I-234] | does not show prolonged duration of action; also recorded: does not have PDA |  |  | > 1000 | > 1000 |  |  |  | 101 to 500 |  |
